According to ChEMBL document CHEMBL1201862, “PubChem BioAssay data set” (2004):
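Briefly, cells in 96-well plates were exposed to five compound concentrations for 48 h, and endpoints were estimated by linear interpolation. GI50: concentration for 50% inhibition of growth.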 Activity calls are given as the source filed them. No stated cut-off is given here; in the data, active = GI50 up to about 1.1 µM and inactive = higher.

Columns and labels:
Experiment in all cases: NCI anticancer screen, dose series, 48 h
M14 = system: M14
A549 = system: A549
SNB-19 = system: SNB-19
HT-29 = system: HT-29
OVCAR-8 = system: OVCAR-8
SR = system: SR
SNB-75 = system: SNB-75
CAKI-1 = system: CAKI-1
K562 = system: K562
HOP-62 = system: HOP-62
HL-60 = system: HL-60
SK-MEL-2 = system: SK-MEL-2
SF-539 = system: SF-539
KM-20L2 = system: KM-20L2
HCT-116 = system: HCT-116
OVCAR-3 = system: OVCAR-3
CCRF-CEM = system: CCRF-CEM
SNB-78 = system: SNB-78
M19-MEL = system: M19-MEL
NCI-H226 = system: NCI-H226
DLD-1 = system: DLD-1
XF498 = system: XF498
A498 = system: A498
TK-10 = system: TK-10
NCI-H460 = system: NCI-H460
NCI-H522 = system: NCI-H522
DMS-114 = system: DMS-114
NCI-H23 = system: NCI-H23
DMS-273 = system: DMS-273
EKVX = system: EKVX
IGROV-1 = system: IGROV-1
786-0 = system: 786-0
HOP-92 = system: HOP-92
ACHN = system: ACHN
UO-31 = system: UO-31
KM12 = system: KM12
HCT-15 = system: HCT-15
U-251 = system: U-251
RXF 393 = system: RXF 393
HCC 2998 = system: HCC 2998
RXF 631 = system: RXF 631
SN12C = system: SN12C
SK-OV-3 = system: SK-OV-3
SF-268 = system: SF-268
HOP-18 = system: HOP-18
UACC-257 = system: UACC-257
LXFL 529 = system: LXFL 529
SK-MEL-5 = system: SK-MEL-5
OVCAR-4 = system: OVCAR-4
RPMI-8226 = system: RPMI-8226
COLO 205 = system: COLO 205
SF-295 = system: SF-295
UACC-62 = system: UACC-62
MOLT-4 = system: MOLT-4
LOX IMVI = system: LOX IMVI
OVCAR-5 = system: OVCAR-5
SK-MEL-28 = system: SK-MEL-28
Malme-3M = system: Malme-3M

Measured: GI50

CCOC(OC1=C(C#N)CCCC1)C(CC)[Se]c1ccccc1 (stereo not drawn)
16.2 µM: HCT-15
inactive: M14 26.3 µM | A549 39.4 µM | SNB-19 39.9 µM | HT-29 29 µM | OVCAR-8 16.8 µM | SR 7.8 µM | SNB-75 29.3 µM | CAKI-1 53.1 µM | K562 38.9 µM | HOP-62 59.7 µM | HL-60 10.1 µM | SK-MEL-2 29.4 µM | SF-539 14.3 µM | KM-20L2 25.1 µM | HCT-116 14.5 µM | OVCAR-3 19.9 µM | CCRF-CEM 15.7 µM | SNB-78 33.8 µM | M19-MEL 19.4 µM | NCI-H226 19.4 µM | DLD-1 16.1 µM | XF498 20.4 µM | A498 13.6 µM | TK-10 > 100 µM | NCI-H460 17.8 µM | NCI-H522 14.7 µM | DMS-114 4.1 µM | NCI-H23 14.3 µM | DMS-273 12 µM | EKVX 24.4 µM | IGROV-1 20.7 µM | 786-0 17.4 µM | HOP-92 25 µM | ACHN 30.1 µM | UO-31 37.8 µM | KM12 > 100 µM | U-251 13 µM | RXF 393 15 µM | HCC 2998 35.2 µM | RXF 631 11.3 µM | SN12C 16.3 µM | SK-OV-3 > 100 µM | SF-268 12.1 µM | HOP-18 16.4 µM | UACC-257 46.7 µM | LXFL 529 19.4 µM | SK-MEL-5 16.4 µM | OVCAR-4 19.3 µM | RPMI-8226 16.2 µM | COLO 205 17.5 µM | SF-295 27.6 µM | UACC-62 13.7 µM | MOLT-4 20.7 µM | LOX IMVI 9.25 µM | OVCAR-5 32.4 µM | SK-MEL-28 23.6 µM | Malme-3M 31 µM
